One experiment has as its target T1, hCRTH2 (Homo sapiens, UniProt Q9Y5Y4).
T1 construct: expressed in transfected cells; host or cells: HEK (human embryonic kidney) cells expressing hCRTH2; membrane preparation
T1 sequence (Q9Y5Y4 1-395): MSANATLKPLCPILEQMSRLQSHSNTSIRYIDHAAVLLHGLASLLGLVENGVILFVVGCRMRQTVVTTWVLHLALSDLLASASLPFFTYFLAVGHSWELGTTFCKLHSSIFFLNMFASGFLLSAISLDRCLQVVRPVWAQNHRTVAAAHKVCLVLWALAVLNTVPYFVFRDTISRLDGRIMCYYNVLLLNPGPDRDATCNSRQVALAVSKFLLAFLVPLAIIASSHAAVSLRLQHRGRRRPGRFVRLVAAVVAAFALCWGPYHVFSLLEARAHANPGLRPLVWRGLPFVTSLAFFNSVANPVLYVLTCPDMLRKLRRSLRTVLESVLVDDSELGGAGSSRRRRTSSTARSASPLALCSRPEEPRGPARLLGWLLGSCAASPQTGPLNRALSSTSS
The experiment is described as follows: Radioligand binding assay ([3H]PGD2 competition, HEK-hCRTH2 membranes). To be noted: [3H]PGD2 binding, rated A-E (Table A). Summed up: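 Displacement of 3.0 nM [3H]PGD2 from human CRTH2 expressed in HEK membranes was measured at room temperature over 60 min. Unlabelled PGD2 at 10 μM gave non-specific binding.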
The term Ki denotes the equilibrium dissociation constant of an inhibitor or competing ligand from its target. Read a high Ki as lower affinity. As for `O=C(O)CCCCc1nc2cc(C(=O)N3CC(c4ccccc4)C3)ccc2nc1-c1ccccc1` [compound 172, 3-phenyl-7-[(3-phenyl-1-azetidinyl)carbonyl]-2-quinoxalinepentanoic acid], the Ki is 0.1 to 2 nM. In turn, `O=C(O)CCCCc1nc2cc(C(=O)N3CC(c4ccccc4)C3)ccc2nc1-c1ccc(F)cc1` [compound 173, 3-(4-fluorophenyl)--7-[(3-phenyl-1-azetidinyl)carbonyl]-2-quinoxalinepentanoic acid] returned a Ki of 0.1 to 2 nM.

The molecule `N#Cc1ccc(C2CN(C(=O)c3ccc4nc(-c5ccccc5)c(CCCCC(=O)O)nc4c3)C2)cc1` [compound 174, 7-[[3-(4-cyanophenyl)-1-azetidinyl]carbonyl]-3-phenyl-2-quinoxalinepentanoic acid] displayed a Ki of 0.1 to 2 nM. For the molecule `N#Cc1cccc(C2CN(C(=O)c3ccc4nc(-c5ccccc5)c(CCCCC(=O)O)nc4c3)C2)c1` [compound 175, 7-[[3-(3-cyanophenyl)-1-azetidinyl]carbonyl]-3-phenyl-2-quinoxalinepentanoic acid], the Ki lay within 2.1 to 20 nM. `O=C(O)CCCCc1nc2cc(C(=O)N3CCCC(c4ccccc4)C3)ccc2nc1-c1ccc(Cl)cc1` (centres unmarked) [compound 176, 3-(4-chlorophenyl)-7-[(3-phenyl-1-piperidinyl)carbonyl]-2-quinoxalinepentanoic acid] gave a Ki of 2.1 to 20 nM.

The molecule `O=C(O)CCCCc1nc2cc(C(=O)N3CCOCC3)ccc2nc1-c1ccc(Cl)cc1` [compound 177, 3-(4-chlorophenyl)-7-(4-morpholinylcarbonyl)-2-quinoxalinepentanoic acid] had a Ki of 2.1 to 20 nM. With `C[C@@H](NC(=O)c1ccc2nc(-c3ccc(Cl)cc3)c(CCCCC(=O)O)nc2c1)c1cccc(F)c1` [compound 178, 3-(4-chlorophenyl)-7-[[[1(R)-(3-fluorophenyl)ethyl]amino]carbonyl]-2-quinoxalinepentanoic acid], the Ki fell in the range of 0.1 to 2 nM. `C[C@H](NC(=O)c1ccc2nc(-c3ccc(Cl)cc3)c(CCCCC(=O)O)nc2c1)c1cccc(F)c1` [compound 179, 3-(4-chlorophenyl)-7-[[[1(S)-(3-fluorophenyl)ethyl]amino]carbony!]-2-quinoxalinepentanoic acid] came in with a Ki of 0.1 to 2 nM. In turn, `C[C@@H](NC(=O)c1ccc2nc(-c3ccc(Cl)cc3)c(CCCCC(=O)O)nc2c1)c1cccc(Cl)c1` [compound 180, 3-(4-chlorophenyl)-7-[[[1(R)-(3-chlorophenyl)ethyl]amino]carbonyl]-2-quinoxalinepentanoic acid] showed a Ki of 0.1 to 2 nM. Take `C[C@H](NC(=O)c1ccc2nc(-c3ccc(Cl)cc3)c(CCCCC(=O)O)nc2c1)c1cccc(Cl)c1` [compound 181, 3-(4-chlorophenyl)-7-[[[1(S)-(3-chlorophenyl)ethyl]amino]carbonyl]-2-quinoxalinepentanoic acid]: the Ki is 0.1 to 2 nM. On the same count and under the same terms, the value for `C[C@@H](NC(=O)c1ccc2nc(-c3ccc(Cl)cc3)c(CCCCC(=O)O)nc2c1)c1cccnc1` [compound 182, 3-(4-chlorophenyl)-7-[[[1(R)-(3-pyridinyl)ethyl]amino]carbonyl]-2-quinoxalinepentanoic acid] was 2.1 to 20 nM; that for `C[C@H](NC(=O)c1ccc2nc(-c3ccc(Cl)cc3)c(CCCCC(=O)O)nc2c1)c1cccnc1` [compound 183] was 2.1 to 20 nM; that for `O=C(O)CCCCc1nc2cc(C(=O)N[C@@H]3CCCc4cc(F)ccc43)ccc2nc1-c1ccc(Cl)cc1` [compound 184, 3-(4-chlorophenyl)-7-[[(6-fluoro-1,2,3,4-tetrahydro-1(R)-naphthalenyl)amino]carbonyl]-2-quinoxalinepentanoic acid] was 0.1 to 2 nM. `O=C(O)CCCCc1nc2cc(C(=O)N[C@H]3CCCc4cc(F)ccc43)ccc2nc1-c1ccc(Cl)cc1` [compound 185, 3-(4-chlorophenyl)-7-[[(6-fluoro-1,2,3,4-tetrahydro-1(S)-naphthalenyl)amino]carbonyl]2-quinoxalinepentanoic acid]: the inhibition constant Ki fell in the range of 2.1 to 20 nM. On the same count and under the same terms, the value for `O=C(O)CCCCc1nc2cc(C(=O)N[C@@H]3CCCc4cc(Cl)ccc43)ccc2nc1-c1ccc(Cl)cc1` [compound 186, 3-(4-chlorophenyl)-7-[[(6-chloro-1,2,3,4-tetrahydro-1(R)-naphthalenyl)amino]carbonyl]-2-quinoxalinepentanoic acid] was 0.1 to 2 nM. Regarding `O=C(O)CCCCc1nc2cc(C(=O)N[C@H]3CCCc4cc(Cl)ccc43)ccc2nc1-c1ccc(Cl)cc1` [compound 187, 3-(4-chlorophenyl)-7-[[(6-chloro-1,2,3,4-tetrahydro-1(S)-naphthalenyl)amino]carbonyl]-2-quinoxalinepentanoic acid], the Ki was 2.1 to 20 nM.

`O=C(O)CCCCc1nc2cc(C(=O)N3CCN(c4ccc(F)cc4)CC3)ccc2nc1-c1ccc(Cl)cc1` [compound 189, 3-(4-chlorophenyl)-7-[[4-(4-fluorophenyl)-1-piperazinyl]carbonyl]-2-quinoxalinepentanoic acid] yielded a Ki of 0.1 to 2 nM. Take `O=C(O)CCCCc1nc2cc(C(=O)N3CCN(c4ccccc4F)CC3)ccc2nc1-c1ccc(Cl)cc1` [compound 190, 3-(4-chlorophenyl)-7-[[4-(2-fluorophenyl)-1-piperazinyl]carbonyl]-2-quinoxalinepentanoic acid]: the Ki was in the range of 0.1 to 2 nM. Consider `O=C(O)CCCCc1nc2cc(C(=O)N3CCN(c4ccc(Cl)cc4)CC3)ccc2nc1-c1ccc(Cl)cc1` [compound 191, 3-(4-chlorophenyl)-7-[[4-(4-chlorophenyl)-1-piperazinyl]carbonyl]-2-quinoxalinepentanoic acid], for which the Ki was in the range of 0.1 to 2 nM. For `O=C(O)Cc1cccc(CCc2nc3cc(C(=O)NCc4cccc(F)c4)ccc3nc2-c2ccc(F)cc2)c1` [compound 192, 3-[2-[3-(4-fluorophenyl)-7-[[[(3-fluorophenyl)methyl]amino]carbonyl]-2-quinoxalinyl]ethyl]benzencacetic acid], the Ki is 2.1 to 20 nM. The same measure, in the same setting: under `O=C(O)Cc1cccc(CCc2nc3cc(C(=O)NCc4ccc(F)cc4)ccc3nc2-c2ccc(F)cc2)c1` [compound 193, 3-[2-[3-(4-fluorophenyl)-7-[[[(4-fluorophenyl)methyl]amino]carbonyl]-2-quinoxalinyl]ethyl] benzeneacetic acid] stands 2.1 to 20 nM; under `N#Cc1ccc(CNC(=O)c2ccc3nc(-c4ccc(F)cc4)c(CCc4cccc(CC(=O)O)c4)nc3c2)cc1` [compound 194], 20.1 to 200 nM. In the case of `C[C@@H](NC(=O)c1ccc2nc(-c3ccc(F)cc3)c(CCc3cccc(CC(=O)O)c3)nc2c1)c1ccc(F)cc1` [compound 195, 3-[2-[3-(4-fluorophenyl)-7-[[[1(R)-(4-fluorophenyl)ethyl]amino]carbonyl]-2-quinoxalinyl]ethyl] benzeneacetic acid], the Ki is 20.1 to 200 nM. Consider `C[C@H](NC(=O)c1ccc2nc(-c3ccc(F)cc3)c(CCc3cccc(CC(=O)O)c3)nc2c1)c1ccc(F)cc1` [compound 196], for which the Ki was in the range of 20.1 to 200 nM. `O=C(O)Cc1cccc(CCc2nc3cc(C(=O)N[C@@H](CCO)c4ccccc4)ccc3nc2-c2ccc(F)cc2)c1` [compound 197, 3-[2-[3-(4-fluorophenyl)-7-[[(3-hydroxy-1(S)-phenylpropyl)amino]carbonyl]-2-quinoxalinyl]ethyl] benzeneacetic acid] yielded a Ki of 201 to 700 nM. `O=C(O)Cc1cccc(CCc2nc3cc(C(=O)N4CCC(c5ccccc5)CC4)ccc3nc2-c2ccc(F)cc2)c1` [compound 198, 3-[2-[3-(4-fluorophenyl)-7-[(4-phenyl-1-piperidinyl)carbonyl]-2-quinoxalinyl]ethyl] benzeneacetic acid] displayed a Ki of 2.1 to 20 nM. In turn, `O=C(O)Cc1cccc(CCc2nc3cc(C(=O)N4CCN(c5ccccc5)CC4)ccc3nc2-c2ccc(F)cc2)c1` [compound 199, 3-[2-[3-(4-fluorophenyl)-7-[(4-phenyl-1-piperazinyl)carbonyl]-2-quinoxalinyl]ethyl] benzeneacetic acid] displayed a Ki of 2.1 to 20 nM. As for `O=C(O)Cc1cccc(CCc2nc3cc(C(=O)N4CC(c5ccccc5)C4)ccc3nc2-c2ccc(F)cc2)c1` [compound 200, 3-[2-[3-(4-fluorophenyl)-7-[(3-phenyl-1-azetidinyl)carbonyl]-2-quinoxalinyl]ethyl] benzeneacetic acid], the Ki was 2.1 to 20 nM. In the case of `CN(Cc1cccc(F)c1)C(=O)c1ccc2nc(-c3ccc(F)cc3)c(CCc3cccc(CC(=O)O)c3)nc2c1` [compound 201], the Ki fell in the range of 0.1 to 2 nM.

Molecule `CN(Cc1ccccc1)C(=O)c1ccc2nc(-c3ccc(F)cc3)c(CCc3cccc(CC(=O)O)c3)nc2c1` [compound 202, 3-[2-[3-(4-fluorophenyl)-7-[[methyl(phenylmethyl)amino]carbonyl]-2-quinoxalinyl]ethyl] benzeneacetic acid] showed a Ki of 0.1 to 2 nM. Turning to `CC(CCCc1nc2cc(C(=O)NCc3cccc(F)c3)ccc2nc1-c1ccc(F)cc1)C(=O)O` (stereo not drawn) [compound 203, 3-(4-fluorophenyl)-7-[[[(3-fluorophenyl)methyl]amino]carbonyl]-alpha-methyl-2-quinoxalinepentanoic acid], the Ki is 2.1 to 20 nM.

Still in this experiment, the particulars now being: [3H]PGD2 binding, values in text.
For `O=C(O)CCCCc1nc2cc(C(=O)N3CC(c4ccccc4)C3)ccc2nc1-c1ccc(F)cc1` [compound 173, 3-(4-fluorophenyl)--7-[(3-phenyl-1-azetidinyl)carbonyl]-2-quinoxalinepentanoic acid], the Ki worked out at 1.6 nM. Still for that read-out and setting: the value for `C[C@@H](NC(=O)c1ccc2nc(-c3ccc(Cl)cc3)c(CCCCC(=O)O)nc2c1)c1cccc(Cl)c1` [compound 180, 3-(4-chlorophenyl)-7-[[[1(R)-(3-chlorophenyl)ethyl]amino]carbonyl]-2-quinoxalinepentanoic acid] was 0.6 nM; that for `O=C(O)Cc1cccc(CCc2nc3cc(C(=O)NCc4ccc(F)cc4)ccc3nc2-c2ccc(F)cc2)c1` [compound 193, 3-[2-[3-(4-fluorophenyl)-7-[[[(4-fluorophenyl)methyl]amino]carbonyl]-2-quinoxalinyl]ethyl] benzeneacetic acid] was 14.6 nM.

In turn, `O=C(O)Cc1cccc(CCc2nc3cc(C(=O)N[C@@H](CCO)c4ccccc4)ccc3nc2-c2ccc(F)cc2)c1` [compound 197, 3-[2-[3-(4-fluorophenyl)-7-[[(3-hydroxy-1(S)-phenylpropyl)amino]carbonyl]-2-quinoxalinyl]ethyl] benzeneacetic acid] yielded a Ki of 464 nM.

The record behind these values is patent publication US9469615B2, “Quinoxalines and AZA-quinoxalines as CRTH2 receptor modulators” (Merck Sharp & Dohme Corp., priority 2010, dated 2016).
